# Results: ChEMBL document CHEMBL1201862, “PubChem BioAssay data set” (2004)
# The source made the active and inactive calls.
# How the values were obtained:
# [1] = target: Fructose-bisphosphate aldolase (Mycobacterium tuberculosis, UniProt P9WQA3); experiment: Fluorescence-based biochemical high throughput dose response assay for inhibitors of the fructose-bisphosphate aldolase (FBA) of M. tuberculosis.; type: functional
# [2] = target: T1, Trace amine-associated receptor 1 (Homo sapiens, UniProt Q96RJ0); experiment: Counterscreen for agonists of the human trace amine associated receptor 1 (hTAAR1): Fluorescence-based cell-based high throughput dose response assay to identify hTAAR1 agonist that also desensitize TAAR1 receptor response.; type: functional
# T1 sequence (Q96RJ0 whole entry): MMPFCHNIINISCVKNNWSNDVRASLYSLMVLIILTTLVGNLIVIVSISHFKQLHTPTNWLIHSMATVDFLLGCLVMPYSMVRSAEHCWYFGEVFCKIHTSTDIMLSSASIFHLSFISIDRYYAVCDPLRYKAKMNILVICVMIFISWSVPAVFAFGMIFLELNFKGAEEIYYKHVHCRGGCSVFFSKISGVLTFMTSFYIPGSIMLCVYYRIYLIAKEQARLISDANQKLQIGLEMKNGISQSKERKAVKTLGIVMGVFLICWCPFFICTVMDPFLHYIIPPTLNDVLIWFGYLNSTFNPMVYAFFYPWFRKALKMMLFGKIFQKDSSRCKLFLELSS
# cells [3] = type: functional, cell-based
# [4] = target: T1, Trace amine-associated receptor 1; experiment: Fluorescence-based cell-based high throughput dose response assay to identify agonists of the human trace amine associated receptor 1 (TAAR1).; type: functional
# cells [5] = type: functional, cell-based; remark: listed apart in the source
# [6] = viability of PTEN-deleted HCT116 cells – cell-based, HCT116 PTEN knockout, dose response (AID 1047); type: functional;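 also: HCT116 colon tumor cells with PTEN knocked out; cells exposed to compound for 60 hours before readout; potency for loss of cell viability measured by luminescence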
# [7] = NIH3T3 cell viability loss – ATP luminescence, mouse fibroblasts, counter-screen, dose response (AID 2010); type: functional, cell-based;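 also: cells exposed to compound for about 90 hours before reading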
# [8] = Trypanosoma cruzi growth suppression in host cells – NIH3T3 host cells, beta-gal luminescence, confirmation (AID 2044); type: functional, cell-based;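 also: intracellular parasites grown in NIH/3T3 mouse fibroblasts as host cells; luminescent beta-galactosidase reporter signal from transgenic T. cruzi replicating inside host cells; inhibitors lower the luminescence signal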
# [9] = target: Matrix metalloproteinase-14 (Homo sapiens, UniProt P50281); experiment: Dose Response confirmation of uHTS hits for a small molecule inhibitors of MT1-MMP activation in a fluorescence assay set 1.; type: functional
# [10] = viability of HCT116 lacking mutant beta-catenin – cell-based, human colon tumor, dose response (AID 1045); type: functional;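 also: HCT116 colon tumor cells with beta catenin knocked out; cells exposed to compound for 60 hours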
# [11] = target: Disintegrin and metalloproteinase domain-containing protein 17 (Homo sapiens, UniProt P78536); experiment: exosite inhibitors of ADAM17, dose response, biochemical (AID 743260)
# [12] = inhibition of ADAM10 peptide cleavage – biochemical, FRET peptide substrate, recombinant human ADAM10, selectivity assay for ADAM17 exosite inhibitor project, dose response (AID 743259);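 also: ADAM10 enzyme cleaving a FRET peptide substrate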
# Albumin = Albumin (Bos taurus, UniProt P02769); experiment: Counterscreen for inhibitors of T-cell receptor (TCR)-CD3 interaction: Fluorescence-based biochemical high throughput dose response assay to identify inhibitors of T-cell receptor (TCR)-CD3 interaction using a TAMRA-labeled BSA probe.; type: functional
# [13] = blockers of HIV-1 envelope-mediated cell-cell fusion – cherry-pick, dose response (AID 652057); type: functional, cell-based
# [14] = off-target signal loss in HeLa-CEM21 co-culture – HeLa F-luc CTL cells, cherry-picked, counter-screen for HIV-1 Env fusion inhibitor project, dose response (AID 652040); type: functional, cell-based;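 also: potency for signal decrease marking cytotoxic or nonspecific inhibition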
# [15] = viability loss in CEM21 cells – cell-based, CellTiter-Glo luminescence, cherry-picked, cytotoxicity control for viral fusion inhibitor project, dose response (AID 652042); type: functional;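 also: potency for signal decrease meaning cytotoxicity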
# [16] = HIV-1 AD8 envelope cell-cell fusion blockers – cherry-pick, dose response (AID 652062); type: functional, cell-based;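 also: luciferase signal from cell-cell fusion driven by HIV-1 clade B AD8 Env; potency is for inhibitors of fusion seen as a drop in luminescence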
# Leucine aminopeptidase = target: T2, Leucine aminopeptidase (Plasmodium falciparum 3D7, UniProt Q8IL11); experiment: P. falciparum M17LAP inhibitors, primary screen, biochemical, fluorogenic H-Leu-NHMec substrate, 1536-well (AID 1619); type: functional
# T2 sequence (Q8IL11 whole entry): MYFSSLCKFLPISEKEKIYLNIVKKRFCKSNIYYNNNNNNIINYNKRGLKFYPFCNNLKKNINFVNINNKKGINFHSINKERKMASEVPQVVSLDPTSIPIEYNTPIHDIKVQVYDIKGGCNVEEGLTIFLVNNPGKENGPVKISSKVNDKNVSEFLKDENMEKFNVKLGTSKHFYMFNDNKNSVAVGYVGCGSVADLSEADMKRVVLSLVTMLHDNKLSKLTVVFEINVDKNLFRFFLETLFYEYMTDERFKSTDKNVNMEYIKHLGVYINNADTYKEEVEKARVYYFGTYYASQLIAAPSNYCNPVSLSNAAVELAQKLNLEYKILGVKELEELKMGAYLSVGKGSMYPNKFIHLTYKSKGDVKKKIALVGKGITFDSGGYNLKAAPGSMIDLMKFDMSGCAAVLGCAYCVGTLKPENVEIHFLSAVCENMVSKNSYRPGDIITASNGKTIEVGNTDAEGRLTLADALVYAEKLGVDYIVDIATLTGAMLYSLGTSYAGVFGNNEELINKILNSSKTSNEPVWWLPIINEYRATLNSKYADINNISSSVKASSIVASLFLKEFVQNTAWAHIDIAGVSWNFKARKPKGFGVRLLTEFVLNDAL
# Disintegrin and metalloproteinase domain-containing protein 17, sequence (P78536 whole entry, the tested form may be a part): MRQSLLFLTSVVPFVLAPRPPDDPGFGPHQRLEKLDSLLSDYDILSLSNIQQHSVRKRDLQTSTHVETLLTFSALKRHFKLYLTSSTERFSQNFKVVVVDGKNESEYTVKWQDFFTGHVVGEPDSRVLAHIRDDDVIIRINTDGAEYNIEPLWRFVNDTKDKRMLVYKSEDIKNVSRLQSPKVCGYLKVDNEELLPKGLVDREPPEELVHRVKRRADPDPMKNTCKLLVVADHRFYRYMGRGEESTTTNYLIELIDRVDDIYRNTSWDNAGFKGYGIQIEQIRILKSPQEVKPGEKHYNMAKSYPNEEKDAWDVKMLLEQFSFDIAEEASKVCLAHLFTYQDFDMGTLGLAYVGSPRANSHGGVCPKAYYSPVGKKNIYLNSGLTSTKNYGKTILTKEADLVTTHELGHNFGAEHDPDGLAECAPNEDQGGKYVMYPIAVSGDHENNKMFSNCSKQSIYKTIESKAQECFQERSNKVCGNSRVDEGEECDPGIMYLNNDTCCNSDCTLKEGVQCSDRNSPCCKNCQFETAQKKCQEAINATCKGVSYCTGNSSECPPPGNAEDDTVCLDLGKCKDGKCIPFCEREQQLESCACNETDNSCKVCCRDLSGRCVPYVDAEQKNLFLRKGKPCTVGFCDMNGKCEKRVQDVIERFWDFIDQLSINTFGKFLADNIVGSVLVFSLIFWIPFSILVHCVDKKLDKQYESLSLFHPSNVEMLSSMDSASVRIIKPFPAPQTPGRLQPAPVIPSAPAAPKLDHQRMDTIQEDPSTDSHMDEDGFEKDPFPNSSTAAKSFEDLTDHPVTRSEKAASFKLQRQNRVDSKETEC
# Albumin, sequence (P02769 whole entry, the tested form may be a part): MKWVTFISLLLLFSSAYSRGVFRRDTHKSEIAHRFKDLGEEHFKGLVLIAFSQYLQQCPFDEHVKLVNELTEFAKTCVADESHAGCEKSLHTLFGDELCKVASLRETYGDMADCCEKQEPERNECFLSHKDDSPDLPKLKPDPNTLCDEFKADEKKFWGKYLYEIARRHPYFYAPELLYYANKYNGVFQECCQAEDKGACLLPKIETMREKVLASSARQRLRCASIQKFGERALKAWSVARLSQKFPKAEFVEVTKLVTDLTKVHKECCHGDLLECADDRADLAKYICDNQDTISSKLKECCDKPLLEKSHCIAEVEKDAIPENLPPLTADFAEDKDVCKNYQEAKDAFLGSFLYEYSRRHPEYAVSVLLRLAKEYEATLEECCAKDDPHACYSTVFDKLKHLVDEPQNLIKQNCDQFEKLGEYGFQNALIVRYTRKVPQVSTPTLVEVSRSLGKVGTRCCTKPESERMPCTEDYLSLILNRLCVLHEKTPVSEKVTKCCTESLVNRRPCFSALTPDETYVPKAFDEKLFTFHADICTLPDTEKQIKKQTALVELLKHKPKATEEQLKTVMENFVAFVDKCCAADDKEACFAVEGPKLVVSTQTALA
# Fructose-bisphosphate aldolase, sequence (P9WQA3 whole entry): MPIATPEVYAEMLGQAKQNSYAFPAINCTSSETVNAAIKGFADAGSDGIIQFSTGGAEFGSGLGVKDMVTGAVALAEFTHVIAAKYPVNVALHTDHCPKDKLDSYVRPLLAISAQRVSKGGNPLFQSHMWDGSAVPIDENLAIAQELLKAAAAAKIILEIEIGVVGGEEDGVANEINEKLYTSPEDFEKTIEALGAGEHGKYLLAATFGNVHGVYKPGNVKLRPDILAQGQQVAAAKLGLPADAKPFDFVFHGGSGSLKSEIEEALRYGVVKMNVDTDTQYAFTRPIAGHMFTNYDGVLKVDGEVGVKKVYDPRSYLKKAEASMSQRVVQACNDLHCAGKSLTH
smiles,measurement,setting,value
Cc1cc(C)c2oc(-c3cccc(N)c3)nc2c1,IC50,[1],0.518 µM (active)
Cc1ccccc1-n1c(=O)cc(N2CCc3ccccc3C2)[nH]c1=O,IC50,[2],7.07 µM (active)
same,IC50,cells [3],> 29.9 µM (inactive)
same,EC50,[4],2.59 µM (active)
same,EC50,cells [5],> 29.9 µM (inactive)
Nc1nc(-c2ccc(Cl)cc2)c(N=Nc2ccc(S(=O)(=O)N3CCOCC3)cc2)s1,EC50,[6],16.5 µM (active)
same,EC50,[7],> 60 µM (inconclusive)
same,EC50,[8],1.96 µM (active)
same,IC50,[9],27.7 µM (inactive)
same,EC50,[10],17.4 µM (active)
COc1ccccc1N(C)S(=O)(=O)c1ccc(C(=O)NNC(=O)c2ccccc2O)cc1,IC50,[11],> 69.5 µM (inactive)
same,IC50,[12],> 69.5 µM (inactive)
same,IC50,Albumin,> 94.1 µM (inactive)
COc1ccc(COC(=O)C2=C(C)NC(=O)NC2c2ccc(OC)cc2)cc1 (configuration not stated),AC50,[13],21.6 µM (active)
same,AC50,[14],47.3 µM (active)
same,AC50,[15],60.3 µM (active)
same,AC50,[16],33.4 µM (active)
CC1=C(C)CC(C(=O)NCCc2ccccc2)C(C(=O)O)C1 (configuration not stated),IC50,[2],7.2 µM (active)
same,IC50,cells [3],> 29.9 µM (inactive)
same,IC50,Leucine aminopeptidase,46 µM (active)
same,EC50,[4],1.4 µM (active)
same,EC50,cells [5],> 29.9 µM (inactive)
